Results taken from patent US20220251625A1, “NOVEL DIAGNOSTIC MARKER FOR PANCREATIC CANCER” (URTESTE S.A., priority 2019, published 2022).
“And” between values parts separate entries of the source, which are not always exact repeats. Equal entries are not always repeated. Numbered stars: 1 amine (or outer) side, 2 acyl side, 3 side chain; on linkers, the order of the positions; unused ones are H or OH. Square brackets hold non-standard residues; d marks the D form. Ends that are not written are not given here. Benzoyl(5-NH,2-NO2) = O=C(c1cc(N[*:1])ccc1[N+](=O)[O-])[*:2]; 2Abz = Nc1ccccc1C(=O)O

How the values were obtained:
Format in all cases: biochemical, human
[1] = system: proteolytic enzymes in urine; experiment: Hydrolysis of chromogenic peptide substrate in urine samples, absorbance at 405 nm; parameters: rate of hydrolysis of substrate: unit not given here; conditions: for rate of hydrolysis of substrate: triplicate, 37° C., pH 8.0, 405 nm
Experimental: Arabic numbers indicate the number of the selected urine sample. […] The result indicates the absence of proteolytic enzymes characteristic of pancreatic cancer.
Arabic numbers indicate the number of the selected urine sample. A similar result as described above for FIG. 1 is obtained.
The study on the application of new compounds was performed on a group of 10 patients diagnosed with pancreatic cancer. For this purpose, the compound with formula 2: ABZ-Thr-Thr-Ala-Arg-ANB-NH2 or formula 3: ABZ-Thr-Thr-Ala-Arg-pNA was dissolved in dimethyl sulfoxide (at a concentration of 0.5 mg/mL); 50 μL of this solution was mixed with 120 μl buffer (200 mM Tris-HCl, pH 8.0) and 80 μL of urine of a person with pancreatic cancer. The measurement was made in a 96-well plate designed for measuring absorbance, and each sample was analysed in triplicate at 37° C. The duration of the measurement was 60 minutes. During the measurement, the wavelength characteristic of the released chromophore (ANB-NH2 or pNA) was monitored at 405 nm (range 380-430 nm).
As a result of the measurement, the colour of the solution increased over time in all urine samples from patients diagnosed with pancreatic cancer. The observed absorbance increase over time was different for each of the tested samples.

[2] = system: proteolytic enzymes in urine; experiment: Degree of substrate hydrolysis versus pH of the reaction environment; parameters: degree of substrate hydrolysis: unit not given here; conditions: for degree of substrate hydrolysis: triplicate
Experimental: Tested pH values are indicated on the x-axis. The relationship between proteolytic activity and pH of reaction environment was assessed.

[3] = system: proteolytic enzymes in urine; experiment: RP HPLC analysis of substrate hydrolysis in urine of a person diagnosed with pancreatic cancer; conditions: urine from a person diagnosed with pancreatic cancer
Experimental: A: ABZ-Thr-Thr-Ala-Arg-ANB NH2 substrate in 200 mM Tris-HCl buffer, pH 8.0. B: Hydrolysis of ABZ-Thr-Thr-Ala-Arg-ANB NH2 substrate in urine of patients diagnosed with pancreatic cancer.

[4] = system: proteolytic enzymes in urine; experiment: Hydrolysis of chromogenic peptide substrate in urine samples, absorbance at 405 nm; conditions: urine samples from healthy individuals (15 samples)
[5] = urine sample 1, patient diagnosed with pancreatic cancer
[6] = urine sample 3, patient diagnosed with pancreatic cancer
[7] = urine sample 4, patient diagnosed with pancreatic cancer
[8] = urine sample 5, patient diagnosed with pancreatic cancer
[9] = urine sample 6, patient diagnosed with pancreatic cancer
[10] = urine sample 7, patient diagnosed with pancreatic cancer
[11] = urine sample 8, patient diagnosed with pancreatic cancer
[12] = urine sample 9, patient diagnosed with pancreatic cancer
[13] = urine sample 10, patient diagnosed with pancreatic cancer

rate of hydrolysis of substrate [1, 5] | rate of hydrolysis of substrate [1, 6] | rate of hydrolysis of substrate [1, 7] | rate of hydrolysis of substrate [1, 8] | rate of hydrolysis of substrate [1, 9] | rate of hydrolysis of substrate [1, 10] | rate of hydrolysis of substrate [1, 11] | rate of hydrolysis of substrate [1, 12] | rate of hydrolysis of substrate [1, 13] | Substance | cleavage products by RP HPLC [3] | other results
0.128 and 0.152 and 0.2109 | 0.07457 and 0.07826 and 0.07178 | 0.03727 and 0.03636 and 0.03044 | 0.02734 and 0.01944 and 0.02312 | 0.04416 and 0.04476 and 0.04487 | 0.02666 and 0.02332 and 0.025 | 0.02045 and 0.02486 and 0.02345 | 0.00647 and 0.00797 and 0.00596 | 0.08668 and 0.1146 and 0.08522 | ABZ-Thr-Thr-Ala-Arg-ANB-NH2 ([2Abz]TTAR-{Benzoyl(5-NH,2-NO2)-NH2}) [chromogenic peptide; ABZ is 2-aminobenzoic acid, ANB-NH2 is amide of 5-amino-2-nitrobenzoic acid] | break down into the ABZ-Thr-Thr-Ala-Arg peptide fragment and chromophore | hydrolysis of the substrate / increase of colour (absorbance) over time ([1]; urine of patients diagnosed with pancreatic cancer (samples 1-10)): all samples 1-10 disintegrated; relationship between proteolytic activity and pH of reaction environment [2]: maximum activity at alkaline pH; degree of substrate hydrolysis ([2]; pH 3): 0; degree of substrate hydrolysis ([2]; pH 4): 0; degree of substrate hydrolysis ([2]; pH 5): 0; degree of substrate hydrolysis ([2]; pH 6): 0; degree of substrate hydrolysis ([2]; pH 7): 0; degree of substrate hydrolysis ([2]; pH 8): 0.07661 and 0.07534 and 0.09735; degree of substrate hydrolysis ([2]; pH 9): 0; increase in absorbance (hydrolysis of the test compound) [4]: does not lead to an increase in absorbance
0.22 and 0.189 and 0.2109 | 0.01632 and 0.01669 and 0.01723 | 0.01727 and 0.01636 and 0.01044 | 0.05734 and 0.05944 and 0.06152 | 0.05416 and 0.05476 and 0.05487 | 0.02666 and 0.02332 and 0.025 | 0.02045 and 0.02486 and 0.02345 | 0.01947 and 0.01797 and 0.01896 | 0.1167 and 0.1146 and 0.1052 | ABZ-Thr-Thr-Ala-Arg-pNA | break down into the ABZ-Thr-Thr-Ala-Arg peptide fragment and chromophore | rate of hydrolysis of substrate ([1]; urine sample 2, patient diagnosed with pancreatic cancer): 0.07457 and 0.07826 and 0.07178
